This is an account of results in PMC7830893, “Four Novel Phenanthrene Derivatives with α-Glucosidase Inhibitory Activity from Gastrochilus bellinus” (Molecules, 2021).

SMILES strings stand for the structures. Entries after “also recorded” stand apart in the source; their conditions may differ.

Experiment [1] deals with α-glucosidase. Put plainly: α-glucosidase enzyme kinetic study (Lineweaver–Burk and secondary plots). The experiment is classed as biochemical. As to conditions: for mode of enzyme inhibition: Lineweaver–Burk plot. How it is done: The enzyme kinetics parameters (Km and Vmax) were determined by analyzing the double reciprocal Lineweaver–Burk plot (1/V vs. 1/[S]). Each experiment was carried out by varying the concentration of pNPG (2.0, 1.0, 0.5, and 0.25 mM) in the absence and presence of different concentrations of the test sample. The reaction was monitored at 405 nm by a microplate reader every 5 min for a total time of 25 min. Each experiment was performed in triplicate. […] For compound 3, secondary plots were plots of the inverted values of Km (1/Km) as a function of inhibitor concentration. The inhibition constant (Ki) was then calculated from the intersection point.

Experiment [2] relates to α-glucosidase. Kind of experiment: α-glucosidase inhibitory assay (pNPG, absorbance at 405 nm). The experiment is classed as biochemical. The settings on record: for α-glucosidase inhibitory activity compared with acarbose: comparison with the drug acarbose; for IC50: pNPG substrate, 37 °C, mean ± SD, triplicate. The method, then:
The α-glucosidase enzyme inhibition assay was carried out according to the method in our previous report. The inhibitory activity was determined by measuring the p-nitrophenol, a yellow color substance that can be monitored at 405 nm, released from p-nitrophenyl-α-D-glucopyranoside (pNPG) by the α-glucosidase enzyme. The test samples were initially dissolved in 50% DMSO, and then, 10 µL of the sample solution and 40 µL of 0.1 unit/mL α-glucosidase were incubated at 37 °C for 10 min. After that, to start the reaction, 50 µL of 2 mM pNPG was added to the mixture and incubated at 37 °C for 20 min. One hundred microliters of 1 M Na2CO3 was added to stop the reaction, and then, the absorbance was measured at 405 nm. […] Each experiment was performed in triplicate.

Usually IC50 stands for the concentration needed to halve the response being measured. Low values mean greater potency in that assay, high ones weaker potency in that assay. Broadly, the Ki is a dissociation constant, usually derived from enzyme kinetics or from competition with a known ligand.

Consider `C[C@H]1O[C@H](O[C@H]2[C@H](O)[C@@H](O)[C@@H](O[C@H]3[C@H](O)[C@@H](O)C(O)O[C@@H]3CO)O[C@@H]2CO)[C@H](O)[C@@H](O)[C@@H]1N[C@H]1C=C(CO)[C@@H](O)[C@H](O)[C@H]1O` (some centres unmarked) [Acarbose, acarbose, reference compound], for which the “mode of enzyme inhibition” value in experiment [1] is “competitive inhibition”. Also, the Vmax in experiment [1] (inhibitor dose 387 µM) and in experiment [1] (inhibitor dose 744 µM) was 0.1 ∆ A405/min throughout.

For `COc1c(O)cc2c3c1COc1c(Cc4ccc(O)cc4)c(O)cc(c1-3)CC2` [Compound 1, gastrobellinol A], in experiment [2], the “α-glucosidase inhibitory activity compared with acarbose” value is given as “higher activity than the drug acarbose; also recorded: higher α-glucosidase inhibitory activity than acarbose” and the IC50 was 88.7 ± 4.1 µM.

Take `COc1cc2c3c(ccc4cc(O)c(OC)c(c43)CO2)c1Cc1ccc(O)cc1` [Compound 2, gastrobellinol B]: in experiment [2], the “α-glucosidase inhibitory activity compared with acarbose” value is recorded as “higher activity than the drug acarbose; also recorded: higher α-glucosidase inhibitory activity than acarbose” and half-maximal inhibition (IC50) was put at 97.8 ± 3.1 µM.

On to `COc1c(O)cc2ccc3c(Cc4ccc(O)cc4)c(O)cc4c3c2c1CO4` [Compound 3, gastrobellinol C], for which, in experiment [2], the “α-glucosidase inhibitory activity compared with acarbose” value is “higher activity than the drug acarbose; also recorded: higher α-glucosidase inhibitory activity than acarbose” and inhibition was half-maximal at 45.9 ± 2.8 µM (IC50). The “mode of enzyme inhibition” value in experiment [1] is listed as “competitive inhibition; also recorded: competitive inhibitor”. The same compound yielded a Ki in experiment [1] (from secondary plot) of 87.3 µM. Moreover, the Vmax in experiment [1] (inhibitor dose 20 µM, pNPG 0.25–2.0 mM) is on record as 0.1 ∆ A405/min. For the same compound, the Vmax in experiment [1] (inhibitor dose 40 µM, pNPG 0.25–2.0 mM) is recorded as 0.1 ∆ A405/min. Also, the “maximum velocity (Vmax)” value in experiment [1] (unchanged at 20 µM and 40 µM compound 3) is given as 0.1 A405/min.

`COc1cc(/C=C/C=O)ccc1O` [Compound 7, coniferyl aldehyde]: in experiment [2], the “α-glucosidase inhibitory activity compared with acarbose” value is “higher activity than the drug acarbose; also recorded: higher α-glucosidase inhibitory activity than acarbose” and inhibition was half-maximal at 381 ± 9.3 µM (IC50).

Consider `O=Cc1ccc(O)cc1` [Compound 8, 4-hydroxybenzaldehyde], for which the “α-glucosidase inhibitory activity compared with acarbose” value in experiment [2] is recorded as “higher α-glucosidase inhibitory activity than acarbose”.

Turning to `COc1cc2ccc3cc(O)c(OC)c4c(=O)oc(c1)c2c34` [Compound 9, agrostophyllone], in experiment [2], the “α-glucosidase inhibitory activity compared with acarbose” value is given as “higher activity than the drug acarbose” and the concentration for half-maximal inhibition (IC50) came to 281 ± 15.9 µM.

For `COc1c(O)cc2c3c1COc1cc(O)c(Cc4ccc(O)cc4)c(c1-3)CC2` [Compound 13, 1-(4′-hydroxybenzyl)-imbricartin], in experiment [2], the “α-glucosidase inhibitory activity compared with acarbose” value is “higher activity than the drug acarbose; also recorded: higher α-glucosidase inhibitory activity than acarbose” and half-maximal inhibition (IC50) required 53.7 ± 12.5 µM.

`COc1c(O)cc2c3c1COc1cc(O)cc(c1-3)CC2` [Compound 15, imbricatin]: in experiment [2], the “α-glucosidase inhibitory activity compared with acarbose” value was “higher activity than the drug acarbose; also recorded: higher α-glucosidase inhibitory activity than acarbose” and half-maximal inhibition (IC50) required 301 ± 6.6 µM.
